Test results reported in patent publication US10175256B2, “Compositions and methods utilizing lysophosphatidylcholine scaffolds” (National University Of Singapore, priority 2013, dated 2019).

Tests used:
Mfsd2a = molecular target: T1, Mfsd2a (Mus musculus, UniProt Q9DA75); experiment: In vivo transport of radiolabeled, fluorescent LPCs and unesterified DHA in Mfsd2a KO and wild-type mice; set-up: from tissue; host or cells: living mice; brain (blood-brain barrier endothelium), liver, heart; fetal brain; details: i.v. injection, 2 hrs post-injection, radiolabel
T1 sequence (Q9DA75 1-534): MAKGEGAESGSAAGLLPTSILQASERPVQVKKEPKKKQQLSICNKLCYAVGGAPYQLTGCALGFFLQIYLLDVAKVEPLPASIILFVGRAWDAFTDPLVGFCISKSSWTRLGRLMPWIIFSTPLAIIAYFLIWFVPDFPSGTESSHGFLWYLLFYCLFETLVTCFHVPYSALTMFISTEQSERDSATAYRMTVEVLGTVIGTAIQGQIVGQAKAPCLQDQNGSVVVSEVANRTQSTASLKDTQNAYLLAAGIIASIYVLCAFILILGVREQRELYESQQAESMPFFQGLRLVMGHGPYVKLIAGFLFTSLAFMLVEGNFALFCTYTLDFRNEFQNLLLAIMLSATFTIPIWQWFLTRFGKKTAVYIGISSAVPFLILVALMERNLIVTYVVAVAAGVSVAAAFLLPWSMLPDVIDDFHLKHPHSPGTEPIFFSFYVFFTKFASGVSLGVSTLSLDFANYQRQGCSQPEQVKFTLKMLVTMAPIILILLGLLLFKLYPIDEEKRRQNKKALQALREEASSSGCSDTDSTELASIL
Procedure: Male and female mice of age of 6-8 weeks were IV injected with 75 μl of 20 mM radiolabeled LPC-[…], 100 μl of 10 mM LPC-[^14C]DHA/BSA complex or 82 μl of 12.2 mM [^14C]DHA/BSA complex in a total volume of 150 μl of phosphate-buffered saline. At 2 hours post injection, mice were anesthetized and perfused for 5 mins with PBS containing 0.5% BSA in order to remove blood and lipid tracer bound to the brain vasculature. Tissues were harvested for lipid extraction. For lipid extraction, tissues were weighed and similar amounts of tissues were homogenized in chloroform/methanol. Lipids from the organic phase were mixed with scintillant and scintillation counted. Similar experiments were also performed with an injection of 300 μg NBD-LPC/BSA or 300 μg TopFluor-LPC/BSA complex per mouse. In this experiment, mice were perfused for 5 mins with PBS followed 15 mins perfusion with 4% paraformaldehyde (PFA) for tissue fixation. Brain sections of WT and KO with a thickness of 40 μm were prepared and scanned using green fluorescence mode in Typhoon FLA 9000 scanner (Agilent). NBD-LPC accumulation was expressed as fluorescence of each section per its area. Dietary DHA transport from mother to fetus was also measured using [^14C]DHA/BSA complex. Pregnant females at e18.5 was gavaged with bolus of [^14C]DHA/BSA complex (200 μl of 10 mM [^14C]DHA/BSA/mouse). Brain of fetuses were collected 20 hours post-gavage and weighed. Lipid extraction and radioactivity were performed as described above.

[1] = Blood LPC [14C]-oleate analysis; type: in vivo, mice; details: intravenous, 2 hrs post-injection
Procedure: Mfsd2a KO and WT mice were injected intravenously with 100 μM radioactive labeled LPC [^14C]-oleate. 10 μl of blood samples were collected after 2 min (initial dose) and after 2 hr from tail vein, and radioactivity was quantified by scintillation counting. The amount of plasma LPC [^14C]-oleate in the KO mice was expressed as ratio to the WT at each time point.

mouse Mfsd2a [2] = molecular target: T2, mouse Mfsd2a (Mus musculus, UniProt Q9DA75); experiment: In vitro transport (uptake) of radiolabeled and fluorescent LPCs in HEK293 cells overexpressing Mfsd2a; type: cell-based
T2 construct: expressed in transfected cells; host or cells: HEK293
T2 sequence (Q9DA75 1-534): T1 sequence (Q9DA75 1-534)
Procedure: Uptake assays of radiolabeled LPCs or fluorescent LPCs were tested using HEK293 cells overexpressing Mfsd2a and mutants constructs. Briefly, HEK293 cells at 90-95% confluency were transfected using LIPOFECTAMINE 2000 (Invitrogen) with pcDNA3.1Mfsd2a (WT), pcDNA3.1Mfsd2aD92A (D92A), pcDNA3.1Mfsd2aD96A (D96A), or pcDNA3.1 (mock) plasmids. Uptake assays were performed after 24 hours of transfections. Prior to ligand incubation, HEK293 transfected cells were washed with serum-free DMEM before assays. For concentration and time dependent assays, radiolabeled LPCs were diluted in pre-warmed DMEM media. For sodium dependent assay, radiolabeled LPCs were diluted in transport buffer (5 mM KCl, 10 mM Hepes, pH 7.4) with 150 mM NaCl or 150 mM choline chloride. For sodium concentration dependent assays, any reductions in the concentration of NaCl were replaced by choline chloride in order to maintain a constant cation molarity of 150 mM. All assays were performed in 12 well-plates with triplicates and at 37° C.

mouse Mfsd2a [3] = molecular target: T2, mouse Mfsd2a; experiment: TLC analysis of phospholipids (bio-incorporation of LPC into PC); type: cell-based; details: TLC
Procedure: HEK293 cells overexpressing with pcDNA3.1Mfsd2a (WT), pcDNA3.1Mfsd2aD92A (D92A), pcDNA3.1Mfsd2aD96A, or pcDNA3.1 (mock) plasmids or human Mfsd2a (in Sport6 plasmid) were washed once with serum-free DMEM medium before incubation with 50 μM radiolabeled LPC [^14C]oleate, LPC [^14C]DHA or with 50 μM TopFluor-LPC and NBD-LPC. Lipids were extracted twice with HIP buffer for 30 mins. Lipids were dried with nitrogen stream and reconstituted in chloroform and spotted on TLC plates (Milipore). Solvent for phospholipid separation was chloroform/methanol/ammonia solution (25%) (50:25:6, per volume). TLC plates of radiolabeled phospholipids were dried for 30 mins and exposed overnight to Phosphorscreens and scanned with Typhoon FLA 9000 scanner (Agilent). TLC plates of fluorescent phospholipids were scanned with Typhoon FLA 9000 scanner and quantified using Imagequant software.

brain uptake in KO mice relative to wild-type (Mfsd2a): markedly reduced
plasma level of injected tracer in KO mice relative to WT [1]: increased levels
uptake of radiolabeled LPC by cells expressing Mfsd2a relative to control cells (mouse Mfsd2a [2]; HEK293 cells, wild-type Mfsd2a vs mock, LPC/BSA, 30 mins): concentration-dependent uptake
net uptake of LPC ligand (PC mass) (mouse Mfsd2a [3]; 100 μM unlabeled LPC-oleate, 1 hour): Increased net uptake
Structure (SMILES): CCCCCCCCC=CCCCCCCCC(=O)OC[C@@H](O)COP(=O)([O-])OCC[N+](C)(C)C [LPC-[^14C]oleate, 1-oleoyl 2-lysophosphocholine]
comparison of Mfsd2a-mediated uptake (capacity to transport) (mouse Mfsd2a [2]; HEK293 cells expressing Mfsd2a): highest capacity to transport LPC-DHA, followed by LPC-oleate, and LPC-palmitate
conversion of transported LPCs into PCs (mouse Mfsd2a [3]; HEK293 cells expressing Mfsd2a, radiolabeled LPC): rapid conversion of transported LPCs into PCs
